The record followed here is US20240368120A1 (Terns Pharmaceuticals, Inc., priority 2023, published 2024).

For the experiment, the target named is T1, human GLP-1R receptor (Homo sapiens, UniProt P43220).
T1 construct: expressed in transfected cells
Description: GLP-1R low expression cell assay (cAMP TR-FRET, CHO-K1_hGLP-1Rlow_clone10 cells). Conditions: for EC50: cAMP TR-FRET, 30 min at 25° C.; for Emax: maximum activation relative to control GLP-1 peptide agonist. The class given is cell-based. The essentials: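 CHO-K1 cells stably expressing low surface human GLP-1R (clone10), 1,000 cells/well, exposed to 10-point 3-fold compound dilutions for 30 min at 25 °C. cAMP measured by TR-FRET (Eu-cAMP tracer/ULight-anti-cAMP, 15 min). EC50 from Hill fit of duplicate percent activation relative to a parallel GLP-1 control agonist.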
In general terms: Time-resolved FRET reads energy transfer from a long-lived donor to a nearby acceptor.

T1 sequence (P43220 24-463): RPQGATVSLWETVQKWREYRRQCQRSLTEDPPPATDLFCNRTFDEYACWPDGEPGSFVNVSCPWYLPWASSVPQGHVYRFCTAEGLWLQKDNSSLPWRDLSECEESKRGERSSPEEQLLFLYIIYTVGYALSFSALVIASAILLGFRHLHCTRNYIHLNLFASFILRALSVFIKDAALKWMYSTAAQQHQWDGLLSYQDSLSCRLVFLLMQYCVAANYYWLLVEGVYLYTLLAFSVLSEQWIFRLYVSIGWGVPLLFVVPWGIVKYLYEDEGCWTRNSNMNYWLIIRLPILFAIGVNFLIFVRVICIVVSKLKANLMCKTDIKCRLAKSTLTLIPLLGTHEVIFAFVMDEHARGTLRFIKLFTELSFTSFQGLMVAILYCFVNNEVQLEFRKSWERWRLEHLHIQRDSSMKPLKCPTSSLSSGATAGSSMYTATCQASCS

On to `O=C(O)c1ccc2c(nc(CN3CCC(c4cccc(OCc5ccc(Cl)cc5F)n4)CC3)n2C[C@@H]2CCO2)c1OC(F)F` [Compound 191, (S)-2-((4-(6-((4-chloro-2-fluorobenzyl)oxy)pyridin-2-yl)piperidin-1-yl)methyl)-4-(difluoromethoxy)-1-(oxetan-2-ylmethyl)-1H-benzo[d]imidazole-5-carboxylic acid], for which the EC50 – broadly, the concentration at which the effect is half-maximal – was 100 to 1000 nM and the Emax (as a rule, the greatest response seen or fitted, relative to the assay's reference) is above 85%.

The compound `Cn1c(CN2CCC(c3ccc4ccn(Cc5ccc(Cl)cc5F)c4n3)CC2)nc2c(OC(F)F)cc(C(=O)O)cc21` [Compound 205, 2-((4-(1-(4-Chloro-2-fluorobenzyl)-1H-pyrrolo[2,3-b]pyridin-6-yl)piperidin-1-yl)methyl)-4-(difluoromethoxy)-1-methyl-1H-benzo[d]imidazole-6-carboxylic acid] had an EC50 above 1000 nM and an Emax of 50 to 85%.

In turn, `Cc1ccc(COc2cccc(C3CCN(Cc4nc5c(OC(F)F)cc(C(=O)O)cc5n4C)CC3)n2)c(F)c1` [Compound 238, 4-(Difluoromethoxy)-2-((4-(6-((2-fluoro-4-methylbenzyl)oxy)pyridin-2-yl)piperidin-1-yl)methyl)-1-methyl-1H-benzo[d]imidazole-6-carboxylic acid] returned an EC50 of 10 to 100 nM and an Emax above 85%.

As to `CC(Oc1ccccc1C1CCN(Cc2nc3c(OC(F)F)cc(C(=O)O)cc3n2C)CC1)c1ccc(C#N)cc1F` (single isomer, unassigned) [Compound 174], the EC50 is above 1000 nM and the Emax was below 25%.

The compound `COc1cc(C(=O)O)cc2c1nc(CN1CCC(c3cccc4c3O[C@@H](c3ccc(C#N)cc3F)CO4)CC1)n2C` [Compound 314, (S)-2-((4-(3-(4-Cyano-2-fluorophenyl)-2,3-dihydrobenzo[b][1,4]dioxin-5-yl)piperidin-1-yl)methyl)-4-methoxy-1-methyl-1H-benzo[d]imidazole-6-carboxylic acid] had an EC50 above 1000 nM and an Emax of 25 to 50%.

With `Cn1c(CN2CCC(c3ccc(Cl)c(OCc4ccc(Cl)cc4F)c3)CC2)nc2c(OC(F)F)cc(C(=O)O)cc21` [Compound 194, 2-((4-(4-Chloro-3-((4-chloro-2-fluorobenzyl)oxy)phenyl)piperidin-1-yl)methyl)-4-(difluoromethoxy)-1-methyl-1H-benzo[d]imidazole-6-carboxylic acid], the EC50 lay in the range of 100 to 1000 nM and the Emax was above 85%.

As for `CCOc1cc(C(=O)O)cc2c1nc(CN1CCC(Oc3cccc(COc4ccc(C#N)cc4F)n3)CC1)n2C` [Compound 290, 2-((4-((6-((4-Cyano-2-fluorophenoxy)methyl)pyridin-2-yl)oxy)piperidin-1-yl)methyl)-4-ethoxy-1-methyl-1H-benzo[d]imidazole-6-carboxylic acid], the concentration giving a half-maximal response (EC50) was below 10 nM and the Emax was above 85%.

`Cn1c(CN2CCC(c3cccc(OCc4ccc(Cl)cc4F)n3)CC2)nc2c(OCC3(C#N)CC3)cc(C(=O)O)cc21` [Compound 214, 2-((4-(6-((4-Chloro-2-fluorobenzyl)oxy)pyridin-2-yl)piperidin-1-yl)methyl)-4-((1-cyanocyclopropyl)methoxy)-1-methyl-1H-benzo[d]imidazole-6-carboxylic acid] registered an EC50 of 100 to 1000 nM and a maximum response (Emax) of 50 to 85%.

`Cn1c(CN2CCC(c3cccc(Cl)c3OCc3ccc(C#N)cc3F)CC2)nc2c(OC(F)F)cc(C(=O)O)cc21` [Compound 138, 2-((4-(3-Chloro-2-((4-cyano-2-fluorobenzyl)oxy)phenyl)piperidin-1-yl)methyl)-4-(difluoromethoxy)-1-methyl-1H-benzo[d]imidazole-6-carboxylic acid] returned an EC50 above 1000 nM and an Emax of 25 to 50%.

In turn, `CCCOc1cc(C(=O)O)cc2c1nc(CN1CCC(c3cccc(OCc4ccc(C#N)cc4F)n3)CC1)n2C` [Compound 319, 2-((4-(6-((4-Cyano-2-fluorobenzyl)oxy)pyridin-2-yl)piperidin-1-yl)methyl)-1-methyl-4-propoxy-1H-benzo[d]imidazole-6-carboxylic acid] gave an EC50 of 10 to 100 nM and an Emax above 85%.

The compound `Cn1c(CN2CCC(n3ccc(OCc4ccc(Cl)cc4F)n3)CC2)nc2c(OC(F)F)cc(C(=O)O)cc21` [Compound 217, 2-((4-(3-((4-Chloro-2-fluorobenzyl)oxy)-1H-pyrazol-1-yl)piperidin-1-yl)methyl)-4-(difluoromethoxy)-1-methyl-1H-benzo[d]imidazole-6-carboxylic acid] had an EC50 above 1000 nM and an Emax above 85%.

The compound `C[C@H](F)Oc1cc(C(=O)O)cc2c1nc(CN1CCC(c3cccc(OCc4ccc(Cl)cc4F)n3)CC1)n2C` (single isomer, unassigned) [Compound 360] displayed an EC50 below 10 nM and an Emax above 85%.

Compound `COc1cc(C(=O)O)nc2c1nc(CN1CCC(c3cccc(OCc4ccc(C#N)cc4F)n3)CC1)n2C` [Compound 323, 2-((4-(6-((4-Cyano-2-fluorobenzyl)oxy)pyridin-2-yl)piperidin-1-yl)methyl)-7-methoxy-3-methyl-3H-imidazo[4,5-b] pyridine-5-carboxylic acid] yielded a concentration for a half-maximal effect (EC50) of 10 to 100 nM and an Emax above 85%.

`Cn1c(CN2CCC(c3cccc(COc4ccc(C#N)cc4F)n3)CC2)nc2c(OC(F)F)cc(C(=O)O)cc21` [Compound 130, 2-((4-(6-((4-Cyano-2-fluorophenoxy)methyl)pyridin-2-yl)piperidin-1-yl)methyl)-4-(difluoromethoxy)-1-methyl-1H-benzo[d]imidazole-6-carboxylic acid] returned an EC50 above 1000 nM and an Emax of 25 to 50%.

Consider `COCCOc1cc(C(=O)O)cc2nc(CN3CCC(c4cccc5c4O[C@@](C)(c4ccc(Cl)cn4)O5)CC3)n(C)c12` [Compound 76, (S)-2-((4-(2-(5-Chloropyridin-2-yl)-2-methylbenzo[d][1,3]dioxol-4-yl)piperidin-1-yl)methyl)-7-(2-methoxyethoxy)-1-methyl-1H-benzo[d]imidazole-5-carboxylic acid], for which the concentration for a half-maximal effect (EC50) is above 1000 nM and the Emax fell in the range of 50 to 85%.

`Cn1c(CN2CCC(c3cccc(OCc4ccc(Cl)cc4OC(F)F)n3)CC2)nc2c(OC(F)F)cc(C(=O)O)cc21` [Compound 246, 2-((4-(6-((4-Chloro-2-(difluoromethoxy)benzyl)oxy)pyridin-2-yl)piperidin-1-yl)methyl)-4-(difluoromethoxy)-1-methyl-1H-benzo[d]imidazole-6-carboxylic acid] returned an EC50 below 10 nM and an Emax above 85%.

For `[2H]C([2H])(C)Oc1cc(C(=O)O)cc2c1nc(CN1CCC(c3cccc(OC([2H])([2H])c4ccc(Cl)cc4F)n3)CC1)n2C` [Compound 286, 2-((4-(6-((4-Chloro-2-fluorophenyl)methoxy-d2)pyridin-2-yl)piperidin-1-yl)methyl)-4-(ethoxy-1,1-d2)-1-methyl-1H-benzo[d]imidazole-6-carboxylic acid], the EC50 was below 10 nM and the Emax is above 85%.

With `N#Cc1ccc(COc2cccc(C3CCN(Cc4nc5cnc(C(=O)O)cc5n4C[C@@H]4CCO4)CC3)n2)c(F)c1` [Compound 378, (S)-2-((4-(6-((4-Cyano-2-fluorobenzyl)oxy)pyridin-2-yl)piperidin-1-yl)methyl)-1-(oxetan-2-ylmethyl)-1H-imidazo[4,5-c]pyridine-6-carboxylic acid], the EC50 was 10 to 100 nM and the Emax was above 85%.

Regarding `COCCOc1cc(C(=O)O)cc2c1nc(CN1CCC(c3cccc4c3O[C@@](C)(c3ccc(Cl)cn3)O4)CC1)n2Cc1cncs1` [Compound 2, (S)-2-((4-(2-(5-Chloropyridin-2-yl)-2-methylbenzo[d][1,3]dioxol-4-yl)piperidin-1-yl)methyl)-4-(2-methoxyethoxy)-1-(thiazol-5-ylmethyl)-1H-benzo[d]imidazole-6-carboxylic acid], the EC50 is below 10 nM and the Emax was above 85%.

Consider `C[C@]1(c2ccc(Cl)cn2)Oc2cccc(C3CCN(Cc4nc5c6c(c(C(=O)O)cc5n4C[C@@H]4CCO4)OCCO6)CC3)c2O1` [Compound 93, 2-((4-((S)-2-(5-Chloropyridin-2-yl)-2-methylbenzo[d][1,3]dioxol-4-yl)piperidin-1-yl)methyl)-3-(((S)-oxetan-2-yl)methyl)-7,8-dihydro-3H-[1,4]dioxino[2′,3′:3,4]benzo[1,2-d]imidazole-5-carboxylic acid], for which the EC50 is below 10 nM and the Emax was above 85%.

As to `CN(c1nc2c(OC(F)F)cc(C(=O)O)cc2n1C[C@@H]1CCO1)[C@H]1CC[C@H](c2cccc(OCc3ccc(C#N)cc3F)n2)CC1` [Compound 132, 2-(((1r,4S)-4-(6-((4-cyano-2-fluorobenzyl)oxy)pyridin-2-yl)cyclohexyl) (methyl)amino)-4-(difluoromethoxy)-1-(((S)-oxetan-2-yl)methyl)-1H-benzo[d]imidazole-6-carboxylic acid], the half-maximal effective concentration (EC50) is below 10 nM and the Emax was above 85%.

The compound `COc1cc(C(=O)O)cc2c1nc([C@H](C)N1CCC(c3cccc4c3O[C@@](C)(c3ccc(Cl)cn3)O4)CC1)n2C` [Compound 96, 2-((S)-1-(4-((S)-2-(5-Chloropyridin-2-yl)-2-methylbenzo[d][1,3]dioxol-4-yl)piperidin-1-yl)ethyl)-4-methoxy-1-methyl-1H-benzo[d]imidazole-6-carboxylic acid] yielded an EC50 of 10 to 100 nM and an Emax above 85%.

The compound `Cn1c(CN2CCC(c3cccc(OCc4ccc(Cl)cc4F)n3)CC2)nc2c3c(c(C(=O)O)cc21)OCO3` [Compound 275, 7-((4-(6-((4-Chloro-2-fluorobenzyl)oxy)pyridin-2-yl)piperidin-1-yl)methyl)-6-methyl-6H-[1,3]dioxolo[4′,5′:3,4]benzo[1,2-d]imidazole-4-carboxylic acid] yielded a half-maximal effective concentration (EC50) of 10 to 100 nM and an Emax above 85%.
